# Laboratory results reported in patent publication EP0968651A1, “Pesticidal method and composition” (RHONE-POULENC A[…]., priority 1998, dated 2000).
# Test system: vine weevil
# Test: Drench treatments of potted Fuchsia triphylla hybrid cv. Koralle infested with vine weevil eggs (curative)
# Assay type: in vivo
# Conditions: curative drench treatment; after 6 months
# Description: In 20-replicate tests, Fuchsia triphylla hybrid cv. Koralle was infested with 15 eggs per pot of vine weevil. Compound A in the form of an 80% water dispersible granule (Regent 800 WG) was suspended in water and added to each pot at the indicated rate per surface area of the pot at various dilutions. After 6 months, the trials were assessed.
structure (smiles),measurement,value
"N#Cc1nn(-c2c(Cl)cc(C(F)(F)F)cc2Cl)c(N)c1[S+]([O-])C(F)(F)F (stereo not shown) [Compound A, 5-amino-1-(2,6-dichloro 4-trifluoromethylphenyl) 4-trifluoromethylsulfinyl-3-cyanopyrazole]",protection of the plants compared with fonofos,protected the plants substantially better than the commercial standard fonofos
